The target of one test is Factor XIa (Homo sapiens (Human), UniProt P03951). Nature of the test: Factor XIa inhibition assay (FLINT) utilizing a fluorophore-quencher pair peptide substrate. Type of test: biochemical. Conditions: 30 min preincubation, kinetic reads over 30 min, read-out: FXIa Kin Inh IC50. In a few lines: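 FXIa ([…]) preincubated 30 min with compound (11-point 3-fold dilution, top 100 nM, 2% DMSO), then 15 μM quenched FXI Arg146-based peptide added; Tris pH 7.5, CaCl2, BSA, CHAPS. Fluorescence 485/520 nm read kinetically every 5 min over 30 min at RT; IC50 by 4-parameter fit.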
Chain of Factor XIa (P03951 388-625): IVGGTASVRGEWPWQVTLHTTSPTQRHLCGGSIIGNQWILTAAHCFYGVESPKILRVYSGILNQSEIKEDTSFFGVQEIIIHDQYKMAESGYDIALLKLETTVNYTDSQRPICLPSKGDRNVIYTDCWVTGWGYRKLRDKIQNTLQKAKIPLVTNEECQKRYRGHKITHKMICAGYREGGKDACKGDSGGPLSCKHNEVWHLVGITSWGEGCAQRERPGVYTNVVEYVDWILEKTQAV
Chain of Factor XIa (P03951 19-387 partner): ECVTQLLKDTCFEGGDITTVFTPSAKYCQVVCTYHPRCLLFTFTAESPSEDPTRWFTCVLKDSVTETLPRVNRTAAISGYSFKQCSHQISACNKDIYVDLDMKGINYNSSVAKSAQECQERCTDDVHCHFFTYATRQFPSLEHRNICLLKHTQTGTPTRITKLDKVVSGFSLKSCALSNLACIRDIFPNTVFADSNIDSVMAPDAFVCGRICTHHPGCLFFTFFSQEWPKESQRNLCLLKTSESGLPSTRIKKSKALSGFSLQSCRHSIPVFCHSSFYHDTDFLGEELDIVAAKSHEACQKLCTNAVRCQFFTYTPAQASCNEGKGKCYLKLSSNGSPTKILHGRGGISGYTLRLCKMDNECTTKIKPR

The target of the next test is human plasma kallikrein (Homo sapiens (Human), UniProt P03952). The experiment in a line: Kallikrein inhibition assay (FLINT) utilizing a quenched AMC peptide substrate. Conditions: 30 min preincubation, read-out: Kallikrein Kin Inh IC50. Type of test: biochemical. In a few lines:
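Enzyme (2 nM final) pre-incubated 30 min at room temperature with compound (11-point, 3-fold, top 1 μM, 2% DMSO), then 50 μM Z-Gly-Pro-Arg-AMC added in Tris pH 7.5 buffer. Kinetic fluorescence 340/440 nm every 5 min over 30 min; IC50 from 4-parameter logistic fit.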

[1] abbreviates: 5Fam-[…]-K5Tamra substrate 15 μM.
Setting [2] is: kinetic reads over 30 min, Z-Gly-Pro-Arg-AMC substrate 50 μM.
Where [3] appears, read: 5Fam-KLTRAETV-K5Tamra substrate 15 μM.

Where two headings read alike, the source gives them in different places.

Chain of human plasma kallikrein (P03952 391-638): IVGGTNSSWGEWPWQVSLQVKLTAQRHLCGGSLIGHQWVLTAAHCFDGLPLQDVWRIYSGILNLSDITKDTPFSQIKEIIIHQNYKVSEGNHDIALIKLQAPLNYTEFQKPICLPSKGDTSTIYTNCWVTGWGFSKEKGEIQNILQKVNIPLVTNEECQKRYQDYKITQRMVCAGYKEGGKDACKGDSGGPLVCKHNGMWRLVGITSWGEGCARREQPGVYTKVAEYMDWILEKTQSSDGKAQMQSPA
Chain of human plasma kallikrein (P03952 20-390 partner): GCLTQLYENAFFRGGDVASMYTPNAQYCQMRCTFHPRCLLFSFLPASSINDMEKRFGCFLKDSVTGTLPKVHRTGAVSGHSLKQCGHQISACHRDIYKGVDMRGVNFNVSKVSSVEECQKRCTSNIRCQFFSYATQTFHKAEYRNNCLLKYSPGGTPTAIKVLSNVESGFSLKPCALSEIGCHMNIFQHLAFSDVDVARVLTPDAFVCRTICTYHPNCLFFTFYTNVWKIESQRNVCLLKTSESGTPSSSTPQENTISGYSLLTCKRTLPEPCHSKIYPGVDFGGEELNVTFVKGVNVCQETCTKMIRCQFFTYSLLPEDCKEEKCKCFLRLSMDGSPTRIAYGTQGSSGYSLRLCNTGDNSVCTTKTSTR

As for `[2H]C([2H])([2H])C(=O)Nc1cnc(C(F)(F)F)cc1-c1cnc([C@@H]2CC[C@@H]3CC(c4c(-n5cnnn5)ccc(Cl)c4F)=CC(=O)N32)[nH]1` [Example 243, N-[4-[2-[(3S,8aR)-7-[3-Chloro-2-fluoro-6-(tetrazol-1-yl)phenyl]-5-oxo-2,3,8,8a-tetrahydro-1H-indolizin-3-yl]-1H-imidazol-5-yl]-6-(trifluoromethyl)-3-pyridyl]-2,2,2-trideuterio-acetamide], the values for the IC50 on Factor XIa (setting [1]) and at human plasma kallikrein (setting [2]) were 52 nM and 0.653 µM, respectively.

In the case of `CC(=O)Nc1cnc(C(F)(F)F)cc1-c1cnc([C@@H]2CC[C@H]3CC(c4c(-n5cnnn5)ccc(Cl)c4F)=CC(=O)N32)[nH]1` [Example 244, N-[4 [2-[(3S,8aS)-7-[3-Chloro-2-fluoro-6-(tetrazol-1-yl)phenyl]-5-oxo-2,3,8,8a-tetrahydro-1H-indolizin-3-yl]-1H-imidazol-5-yl]-6-(trifluoromethyl)-3-pyridyl]acetamide], the figures for the IC50 on Factor XIa (setting [3]) and at human plasma kallikrein (setting [2]) were above 100 nM and 0.73 µM, respectively.

Consider `CC(=O)Nc1cnc(C(F)(F)F)cc1-c1cnc([C@@H]2CC[C@@H]3CC(c4c(-n5cnnn5)ccc(Cl)c4F)=CC(=O)N32)[nH]1` [Example 245, N-[4-[2-[(3S,8aR)-7-[3-Chloro-2-fluoro-6-(tetrazol-1-yl)phenyl]-5-oxo-2,3,8,8a-tetrahydro-1H-indolizin-3-yl]-1H-imidazol-5-yl]-6-(trifluoromethyl)-3-pyridyl]acetamide], for which the IC50 (usually the point on the concentration scale where inhibition reaches its midpoint) on Factor XIa (setting [3]) came out at 76.8 nM; at human plasma kallikrein (setting [2]), 0.558 µM.

Turning to `CC(F)(F)C(=O)Nc1cnccc1-c1c[nH]c([C@@H]2CCC3CC(c4c(-n5cnnn5)ccc(Cl)c4F)=CC(=O)N32)n1` (stereo partly drawn) [Example 246, N-[4-[2-[(3S)-7-[3-Chloro-2-fluoro-6-(tetrazol-1-yl)phenyl]-5-oxo-2,3,8,8a-tetrahydro-1H-indolizin-3-yl]-1H-imidazol-4-yl]-3-pyridyl]-2,2-difluoro-propanamide], the IC50 came to 1.8 nM on Factor XIa (setting [3]) and 0.141 µM at human plasma kallikrein (setting [2]).

`Cn1ncc(NC(=O)C2CC2)c1-c1c[nH]c([C@@H]2CC[C@H]3CC(c4c(-n5cnnn5)ccc(Cl)c4F)=CC(=O)N32)n1` [Example 247, N-[5-[2-[(3S,8aS)-7-[3-Chloro-2-fluoro-6-(tetrazol-1-yl)phenyl]-5-oxo-2,3,8,8a-tetrahydro-1H-indolizin-3-yl]-1H-imidazol-4-yl]-1-methyl-pyrazol-4-yl]cyclopropanecarboxamide]: the IC50 on Factor XIa (setting [3]) turned out to be 0.7 nM; on human plasma kallikrein (setting [2]) it was 0.0156 µM.

Consider `O=C(Nc1ccsc1-c1c[nH]c([C@@H]2CCC3CC(c4c(-n5cnnn5)ccc(Cl)c4F)=CC(=O)N32)n1)C1CC1` (stereo partly drawn) [Example 248, N-[2-[2-[(3S)-7-[3-Chloro-2-fluoro-6-(tetrazol-1-yl)phenyl]-5-oxo-2,3,8,8a-tetrahydro-1H-indolizin-3-yl]-1H-imidazol-4-yl]-3-thienyl]cyclopropanecarboxamide], for which the IC50 on Factor XIa (setting [3]) was 1 nM; on human plasma kallikrein (setting [2]), 0.0015 µM.

Take `CCOC(=O)Nc1ccncc1-c1c[nH]c([C@@H]2CCC3CC(c4c(-n5cnnn5)ccc(Cl)c4F)=CC(=O)N32)n1` (stereo partly drawn) [Example 251, Ethyl N-[3-[2-[(3S)-7-[3-chloro-2-fluoro-6-(tetrazol-1-yl)phenyl]-5-oxo-2,3,8,8a-tetrahydro-1H-indolizin-3-yl]-1H-imidazol-4-yl]-4-pyridyl]carbamate]: the half-maximal inhibitory concentration (IC50) was 32.2 nM at Factor XIa (setting [3]) and 0.226 µM on human plasma kallikrein (setting [2]).

On to `O=C(Nc1ccncc1-c1c[nH]c([C@@H]2CCC3CC(c4c(-n5cnnn5)ccc(Cl)c4F)=CC(=O)N32)n1)C1CC1` (stereo partly drawn) [Example 252, N-[3-[2-[(3S)-7-[3-Chloro-2-fluoro-6-(tetrazol-1-yl)phenyl]-5-oxo-2,3,8,8a-tetrahydro-1H-indolizin-3-yl]-1H-imidazol-4-yl]-4-pyridyl]cyclopropanecarboxamide], for which the results for the IC50 at Factor XIa (setting [3]) and at human plasma kallikrein (setting [2]) were 0.6 nM and 0.0045 µM, respectively.

With `Nc1ccncc1-c1c[nH]c([C@@H]2CCC3CC(c4c(-n5cnnn5)ccc(Cl)c4F)=CC(=O)N32)n1` (stereo partly drawn) [Example 253, (3S)-3-[4-(4-Amino-3-pyridyl)-1H-imidazol-2-yl]-7-[3-chloro-2-fluoro-6-(tetrazol-1-yl)phenyl]-2,3,8,8a-tetrahydro-1H-indolizin-5-one], the IC50 was above 100 nM at Factor XIa (setting [3]) and above 1 µM on human plasma kallikrein (μM, kinetic reads).

Regarding `CCOC(=O)Nc1ncccc1-c1c[nH]c([C@@H]2CC[C@@H]3CC(c4c(-n5cnnn5)ccc(Cl)c4F)=CC(=O)N32)n1` [Example 254, Ethyl N-[3-[2-[(3S,8aR)-7-[3-chloro-2-fluoro-6-(tetrazol-1-yl)phenyl]-5-oxo-2,3,8,8a-tetrahydro-1H-indolizin-3-yl]-1H-imidazol-4-yl]-2-pyridyl]carbamate], the IC50 is 16.7 nM on Factor XIa (setting [3]) and 0.15 µM at human plasma kallikrein (setting [2]).

For the molecule `Cn1cnc(-c2c[nH]c([C@@H]3CCC4CC(c5c(-n6cnnn6)ccc(Cl)c5F)=CC(=O)N43)n2)n1` (stereo partly drawn) [Example 255, (3S)-7-[3-Chloro-2-fluoro-6-(tetrazol-1-yl)phenyl]-3-[4-(1-methyl-1,2,4-triazol-3-yl)-1H-imidazol-2-yl]-2,3,8,8a-tetrahydro-1H-indolizin-5-one], the IC50 on Factor XIa (setting [3]) was above 100 nM; at human plasma kallikrein (μM, kinetic reads), above 1 µM.

For `[2H]C([2H])([2H])C(=O)Nc1cnccc1-c1c[nH]c([C@@H]2CCC3CC(c4c(-n5cnnn5)ccc(Cl)c4F)=CC(=O)N32)n1` (stereo partly drawn) [Example 256, N-[4-[2-[(3S)-7-[3-Chloro-2-fluoro-6-(tetrazol-1-yl)phenyl]-5-oxo-2,3,8,8a-tetrahydro-1H-indolizin-3-yl]-1H-imidazol-4-yl]-3-pyridyl]-2,2,2-trideuterio-acetamide], the IC50 is 1.4 nM at Factor XIa (setting [1]) and 0.0675 µM at human plasma kallikrein (setting [2]).

For `CNc1n[nH]c2cc(-c3cnc([C@@H]4CCC5CC(c6c(-n7cnnn7)ccc(Cl)c6F)=CC(=O)N54)[nH]3)ccc12` (stereo partly drawn) [Example 258, (3S)-7-[3-Chloro-2-fluoro-6-(tetrazol-1-yl)phenyl]-3-[5-[3-(methylamino)-1H-indazol-6-yl]-1H-imidazol-2-yl]-2,3,8,8a-tetrahydro-1H-indolizin-5-one], the figures for the IC50 on Factor XIa (setting [3]) and on human plasma kallikrein (setting [2]) were 0.3 nM and 0.0008 µM, respectively.

On to `Cn1cc(-c2c[nH]c([C@@H]3CCC4CC(c5c(-n6cnnn6)ccc(Cl)c5F)=CC(=O)N43)n2)c(NC(=O)C2CC2)n1` (stereo partly drawn) [Example 259, N-[4-[2-[(3S)-7-[3-Chloro-2-fluoro-6-(tetrazol-1-yl)phenyl]-5-oxo-2,3,8,8a-tetrahydro-1H-indolizin-3-yl]-1H-imidazol-4-yl]-1-methyl-pyrazol-3-yl]cyclopropanecarboxamide], for which the IC50 at Factor XIa (setting [3]) turned out to be 2.7 nM; on human plasma kallikrein (setting [2]), 0.021 µM.

As to `CNc1ncccc1-c1cnc([C@@H]2CCC3CC(c4c(-n5cnnn5)ccc(Cl)c4F)=CC(=O)N32)[nH]1` (stereo partly drawn) [Example 260, (3S)-7-[3-Chloro-2-fluoro-6-(tetrazol-1-yl)phenyl]-3-[4-[2-(methylamino)-3-pyridyl]-1H-imidazol-2-yl]-2,3,8,8a-tetrahydro-1H-indolizin-5-one], the IC50 on Factor XIa (setting [3]) was above 100 nM; on human plasma kallikrein (setting [2]), 0.462 µM.

With `O=C1C=C(c2c(-n3cnnn3)ccc(Cl)c2F)CC2CC[C@@H](c3ncc(-c4ccc5[nH]c(=O)ccc5c4)[nH]3)N12` (stereo partly drawn) [Example 261, 6-[2-[(3S)-7-[3-Chloro-2-fluoro-6-(tetrazol-1-yl)phenyl]-5-oxo-2,3,8,8a-tetrahydro-1H-indolizin-3-yl]-1H-imidazol-5-yl]-1H-quinolin-2-one], the IC50 on Factor XIa (setting [3]) turned out to be 0.3 nM; at human plasma kallikrein (setting [2]) it was 0.0007 µM.

The values above are taken from patent US20230295157A1, “3-(1H-IMIDAZOL-2-YL)-2,3,8,8A-TETRAHYDROINDOLIZIN-5(1H)-ONE DERIVATIVES USEFUL AS FACTOR XIA INHIBITORS” (JANSSEN PHARMACEUTICA NV, priority 2020, published 2023).
